Data published in patent US20050220906A1, “Pharmaceutical composition for treating rheumatism and the preparation thereof” (priority 2002, published 2005).

Columns and labels:
[1] = tested on: pleuritis induced by the carrageenan; assay: Carrageenan pleuritis: exudation and inflammatory cell aggregation; format: in vivo, mice; settings: 0.05 g/kg
Method: The mice were divided into 5 groups at random and injected with 0.5% Evans blue NS solution into the caudal vein on the dosage of 0.1 ml/10 g. Then the mice were injected with the 0.03 ml 1% carrageenan in the right chest cavity with the special syring niddle. 4 hours and 32 hours after the injection, the correspondent mice were killed and opend the obdominal cavity to expose the diaphragm. 2 ml of the lotion were injected to the chest cavity by 2 times with a 1 ml injector. The lotion was collected and saved in a test tube. 20 μl of the lotion collected was added into the 400 μl WBC dilution. The WBC in the mixed dilution was counted under the microscope. The rest of the lotion was centrifuged at 3000 rpm for 10 min. The supernate of the lotion was measured the OD at the wavelength of 600 nm. The OD value of the sample should be corrected with the correspondent OD value of the pure lotion. (See the result in table 9)

[2] = tested on: croton oil-induced swelling; assay: Croton oil-induced swelling of the ears; format: in vivo, NIH mice; settings: 0.003 g/kg, 3 days
Method: 60 NIH mice with weight of 18˜22 g, male and female accounting for half and half, were divided into 6 groups, which were drenched with the same volume and different dosage of drug liquid or tragacanth liquid, once a day, lasting 3 days. 1 hour after the final administration, 2% croton oil mixure of 0.02 ml was embrocated uniformly on the both sides of left ears of mice, and after 4 hours, the mice were snapped off its cervical vertebra and put to death. The left and right ears were cut down, then inflammatory and control ears were weighted by certain means. Difference of weight between left and right ears was the swelling extent of ears, results showing in table 11.

capillary permeability = assay: Capillary permeability induced by acetic acid in the abdominal cavity; format: in vivo, NIH mice; settings: 0.15 g/kg, qd × 3
Method: 90 NIH mice, 18˜22 g weight, half male and half female, were divided into 9 groups and drenched with the correspondent medicine solutions of the same volumn. The medicines were drenched once a day for 3 days or just 1 time. 1 hour after the last administration, each mouse were injected with 0.7% HAC-NS solution into the abdominal cavity. At the same time, each mouse was injected with the 0.5% Evans blue-NS solution into the vessel on the dose of 0.1 ml/10 g. 30 min later; all the mice were killed by cervical disjoint. The abdominal cavity was opened and washed by the 5 ml NS. The NS used was collected and adjusted to 8 ml by the pure NS as the sample. The samples were centrifuged at 3000 rpm to get the supernate. The supernate was measured the OD at the wavelength at 590 nm. (See the result in table 8)

macrophage = assay: CRBC phagocytosis of abdominal macrophages; format: in vivo, mouse; settings: 0.005 g/kg, 7 days
Method: 50 NIH mice, 18˜22 g weight, half male and half female, were divided into 5 groups and drenched with the correspondent medicine solutions on the same volumn. The administration was once a day for 7 days. 1 hour after the last administration, all the mice were injected with 0.2 ml 10% chick RBC into the abdominal carvity. 4 hours later, all the mice were killed and sampled the fluid in the abdomincal carvity. The liquor samples were dropped on the glass and counted the number of the macrophage which had phagocytized the CRBC and the number of the CRBC in one macrophage. (See the result in table 7)

DTH caused by DNFB = assay: Delayed hypersensitivity (DTH) caused by DNFB in the mouse ear; format: in vivo, NIH mouse; settings: 0.003 g/kg, administration day 0˜5
Method: Each mouse was led to hypersensitivity reaction by using the 1% DNFB acetone solution on the dosage of 0.025 ml at the right place of the abdomen where the pilus had been cut yet. Using the same solution on the same place was to enhance the hypersensitivity reaction on the third day. On the fifth day, all the mice were smeared with the 1% DNFB edible oil solution at the mice's right ears on the dosage of 0.01 ml each. 24 hours later, all the mice were killed. The mouse's 2 ears were weighted by the torsion balance and the difference of the 2 ears was recorded as the DTH degree caused by the DNFB. The experiment was carried out on the different immune and administration processes.
The immune and administration processes is as following: [drawing 1]

[3] = Organ index of AA rats (prevention experiment); format: in vivo, SD rats
Method: (§1) 72 isogenous SD rats of the same batch, half male and half female, 180˜220 g weight, were divided randomly into 6 groups. Each group has 12 rats. Every 6 rats lived in a cage. The perimeter of the double anklejoints and the feet of the rat were measured accurately and recorded as the normal value. All the rats were drenched by the same volume of the invented medicine on the correspondent concentration or the solution of the Xihuangqi by the gastic injection. 1 hour later, all the rats were injected with 0.1 ml Freund's complete adjuvant (FCA) under the skin of the left postpedes. In the next 30 days, all the rats were drenched with the correspondent medicine once a day on the same dosage. And in these days, the rats were measured of the perimeters of the double anklejoints and the feet once a day. In this experiment, the swelling degree (Δcm) equaled to the difference value of the perimeters measured after the FCA injection and before the FCA injection. (See the result in table 1.1 and 1.2) At the end of the experiment, the major organs of the rats were weighted. (See the table 1.3, 1.4)

AA rats = assay: Therapeutic effect on AA: swelling degree; format: in vivo, SD rats; settings: 0.01 g/kg
Excerpt: (§2) 50 male SD rats were divided into 5 groups at random. The model building was same to the prevention experiment, but the correspondent medicines were drenched 13 days after the injection of the FCA. The medicines were drenched once a day for 2 weeks. The swelling degree (Δcm) was the difference of the perimeters between the value of first administration day and the other days.

[4] = Organ index of AA rats (Table 1.7); format: in vivo, SD rats; settings: 0.01 g/kg
Excerpt: as §2

rat AA model = assay: Preventing effect on adjuvant arthritis (AA): swelling degree; format: in vivo, SD rats; settings: 0.01 g/kg
Method: as §1

[5] = Body weight of AA rats (prevention experiment); format: in vivo, SD rats; settings: 0.01 g/kg
Method: as §1

PCA in rat = assay: Passive cutis anaphylactic reaction (PCA); format: in vivo; settings: 0.1 g/kg
Method: The rats were injected with the egg albumn at 10 mg/kg in the muscle. At the same time, all the rats were injected with 2×10^10 (0.2 ml) bordetella pertussis in the abdominal cavity for sensitization. 2 weeks later, all the rats were killed to sample the blood. All the blood samples were separated for preparing the serum.
60 rats, 150˜200 g, half male and half female, were divided into 6 groups at random. In the light narcosis condition induced by aether, each rat was cut the fleece in the back and injected with the 2 concentrations of anti-egg-album serum 0.1 ml under the skin at the fairless place. The serums were diluted on the rates of 1:5(d1) and 1:10(d2) before the experiment. 48 hours later, all the rats were attacked by intravenous injecting the 0.5% evans blue normal saline solution 1 ml which containing 1 mg egg albumin. 20 minutes later, the rats were killed by decapitation. The rats' back skin were dissected and turned over. According to the dark and light and area of the blue stains exudated from the vessels, all the rats were evaluated by several people. The skin stained by the evens blue were scissored and soaked in 5 ml 0.1% sodium sulfate acetone (7:3) solution for 48 hours. Then it was centrifugated to separate the supernatant liquor. The supernates were measured the optical density at the wavelength 590 nm to calculate the degree of the PCA reaction and the inhibiting percent.

## C[C@@H]1C[C@H]2[C@@H]3CCC4=CC(=O)C=C[C@]4(C)[C@@]3(F)[C@@H](O)C[C@]2(C)[C@@]1(O)C(=O)CO [dexamethasone]
[1]; 4 h
  Tincture exudation: 0.085 ± 0.045 OD
[1]; 32 h
  Tincture exudation: 0.063 ± 0.017 OD
[2]
  Degree of ears' swelling: 14.13 ± 5.75 mg
[2]; Mus musculus, 72 h, read-out: inhibition rate
  inhibition at 3 mg/kg: 68.2%
Capillary permeability
  Leakage of the tincture: 0.11 ± 0.07 OD
macrophage
  Percent of phagocytosis: 8.33 ± 10.13 %
  phagocytosis index: 1.10 ± 0.18

## C[C@@H]1C[C@H]2[C@@H]3CCC4=CC(=O)C=C[C@]4(C)[C@@]3(F)[C@@H](O)C[C@]2(C)[C@@]1(O)C(=O)CO [cortisumman]
DTH caused by DNFB
  Percent of ear swelling: 13.93 ± 4.41
  Percent of inhibition: 59.3%

## C[C@]12C=CC(=O)C=C1CC[C@@H]1[C@@H]2C(=O)C[C@@]2(C)[C@H]1CC[C@]2(O)C(=O)CO [prednisone]
[3]; 0.01 g/kg
  Organ index [(organ weight/body weight)/100] Liver: 3.04 ± 0.20
  Organ index [(organ weight/body weight)/100] Spleen: 0.32 ± 0.08
  Organ index [(organ weight/body weight)/100] Thymus: 0.050 ± 0.060
  Organ index [(organ weight/body weight)/100] adrenal gland: 0.020 ± 0.004
[3]; AA rats, tables 1.4 and 1.7
  atrophy of the thymus and adrenal gland: atrophied
AA rats; 1 d
  Swelling degree, left anklejoint and foot: 1.78 ± 0.51 Δcm
AA rats; 2 d
  Swelling degree, left anklejoint and foot: 1.70 ± 0.51 Δcm
  Swelling degree, right anklejoint and foot: 0.10 ± 0.13 Δcm
AA rats; 4 d
  Swelling degree, left anklejoint and foot: 1.63 ± 0.50 Δcm
  Swelling degree, right anklejoint and foot: 0.15 ± 0.28 Δcm
AA rats; 6 d
  Swelling degree, left anklejoint and foot: 1.58 ± 0.50 Δcm
  Swelling degree, right anklejoint and foot: 0.11 ± 0.25 Δcm
AA rats; 8 d
  Swelling degree, left anklejoint and foot: 1.27 ± 0.46 Δcm
  Swelling degree, right anklejoint and foot: −0.08 ± 0.34 Δcm
AA rats; 10 d
  Swelling degree, left anklejoint and foot: 1.09 ± 0.54 Δcm
  Swelling degree, right anklejoint and foot: −0.13 ± 0.28 Δcm
AA rats; 12 d
  Swelling degree, left anklejoint and foot: 0.94 ± 0.50 Δcm
  Swelling degree, right anklejoint and foot: −0.26 ± 0.36 Δcm
AA rats; 14 d
  Swelling degree, left anklejoint and foot: 0.94 ± 0.42 Δcm
  Swelling degree, right anklejoint and foot: −0.33 ± 0.39 Δcm
[4]
  Organ index [(organ weight/body weight)/100] Liver: 3.52 ± 0.35
  Organ index [(organ weight/body weight)/100] Spleen: 0.28 ± 0.047
  Organ index [(organ weight/body weight)/100] Thymus: 0.05 ± 0.011
  Organ index [(organ weight/body weight)/100] adrenal gland: 0.02 ± 0.0043
Rat AA model; 1 d
  Swelling degree, left anklejoint and foot: 0.64 ± 0.14 Δcm
Rat AA model; 2 d
  Swelling degree, left anklejoint and foot: 0.64 ± 0.16 Δcm
  Swelling degree, left anklejoint and foot (Table 1.2): 0.20 ± 0.06 Δcm
Rat AA model; 3 d
  Swelling degree, left anklejoint and foot: 0.50 ± 0.26 Δcm
Rat AA model; 9 d
  Swelling degree, left anklejoint and foot: 0.46 ± 0.25 Δcm
  Swelling degree, left anklejoint and foot (Table 1.2): 0.08 ± 0.08 Δcm
Rat AA model; 12 d
  Swelling degree, left anklejoint and foot: 0.72 ± 0.46 Δcm
  Swelling degree, left anklejoint and foot (Table 1.2): 0.21 ± 0.16 Δcm
Rat AA model; 14 d
  Swelling degree, left anklejoint and foot: 0.87 ± 0.46 Δcm
  Swelling degree, left anklejoint and foot (Table 1.2): 0.44 ± 0.43 Δcm
Rat AA model; 16 d
  Swelling degree, left anklejoint and foot: 1.28 ± 0.69 Δcm
  Swelling degree, left anklejoint and foot (Table 1.2): 0.99 ± 0.63 Δcm
Rat AA model; 18 d
  Swelling degree, left anklejoint and foot (Table 1.2): 0.84 ± 0.74 Δcm
Rat AA model; 20 d
  Swelling degree, left anklejoint and foot: 1.03 ± 0.67 Δcm
  Swelling degree, left anklejoint and foot (Table 1.2): 0.82 ± 0.72 Δcm
Rat AA model; 22 d
  Swelling degree, left anklejoint and foot: 1.05 ± 0.69 Δcm
  Swelling degree, left anklejoint and foot (Table 1.2): 0.79 ± 0.74 Δcm
Rat AA model; 24 d
  Swelling degree, left anklejoint and foot: 0.90 ± 0.64 Δcm
  Swelling degree, left anklejoint and foot (Table 1.2): 0.75 ± 0.67 Δcm
Rat AA model; 26 d
  Swelling degree, left anklejoint and foot: 0.86 ± 0.65 Δcm
  Swelling degree, left anklejoint and foot (Table 1.2): 0.68 ± 0.64 Δcm
Rat AA model; 28 d
  Swelling degree, left anklejoint and foot: 0.85 ± 0.59 Δcm
  Swelling degree, left anklejoint and foot (Table 1.2): 0.71 ± 0.67 Δcm
[5]
  BW at 1 month later: 244 ± 31 g
  BW change: -21 g
  Initiative BW: 264 ± 55 g

## CN1CCC(=C2c3ccccc3CC(=O)c3sccc32)CC1 [Ketotifen]
PCA in rat; serum d1 (1:5)
  PCA absorbancy: 0.033 ± 0.024
  PCA value: 2.78 ± 1.64
PCA in rat; serum d2 (1:10)
  PCA absorbancy: 0.027 ± 0.019
  PCA value: 0.67 ± 1.41
